Laboratory results taken from patent US10227323B2, “Glucosylceramide synthase inhibitors for the treatment of diseases” (BIOMARIN PHARMACEUTICAL INC., priority 2013, dated 2019).

Biological target: T1, GCS (Canis lupus familiaris, UniProt A0A8I3MXG6)
T1 sequence (A0A8I3MXG6 1-394): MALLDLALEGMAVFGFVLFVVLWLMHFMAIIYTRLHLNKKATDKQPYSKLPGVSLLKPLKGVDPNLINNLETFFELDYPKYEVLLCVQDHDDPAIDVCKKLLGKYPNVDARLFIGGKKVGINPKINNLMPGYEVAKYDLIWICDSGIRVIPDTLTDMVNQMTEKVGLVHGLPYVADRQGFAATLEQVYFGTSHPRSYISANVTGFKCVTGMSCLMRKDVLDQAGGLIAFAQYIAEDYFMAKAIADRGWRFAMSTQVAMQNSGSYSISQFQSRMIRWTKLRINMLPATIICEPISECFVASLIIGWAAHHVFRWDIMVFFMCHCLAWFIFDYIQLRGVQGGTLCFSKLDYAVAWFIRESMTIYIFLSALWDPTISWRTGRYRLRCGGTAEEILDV
Test: Assay 1: GCS Enzymatic Assay (MDCK cell lysate, C6-NBD-Ceramide, LC/MS)
Assay type: biochemical, canine
Details: Table 2; for % inhibition generated from Assay 1: data marked by *; for IC50: data without asterisk, read-out: IC50 (nM) generated from Assay 1
Outline: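 LC/MS/MS measurement of glucosylceramide and NBD-ceramide after a 1 h, 37 °C reaction with 100 μM UDP-glucose and 10 μM C6-NBD-ceramide gave IC50s or percent inhibition.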

| SMILES | % inhibition generated from Assay 1 | IC50 |
| --- | --- | --- |
| O=C(N[C@H](CN1CCCC1)[C@H](O)c1ccc(OC2CC2)c(Cl)c1)C(F)(F)c1cccc(Oc2ccc(F)cc2)c1 [Compound 206, N-((1R,2R)-1-(3-chloro-4-cyclopropoxyphenyl)-1-hydroxy-3-(pyrrolidin-1-yl)propan-2-yl)-2,2-difluoro-2-(3-(4-fluorophenoxy)phenyl)acetamide] | A* (the compound had a % inhibition of a percent inhibition of greater than or equal to about 50%) | – |
| Cn1ncc2cc(-c3ccc(C(=O)C(=O)N[C@H](CN4CCCC4)[C@H](O)c4ccc5c(c4)OCCO5)cc3)ccc21 [Compound 207, N-((1R,2R)-1-(2,3-dihydrobenzo[b][1,4]dioxin-6-yl)-1-hydroxy-3-(pyrrolidin-1-yl)propan-2-yl)-2-(4-(1-methyl-1H-indazol-5-yl)phenyl)-2-oxoacetamide] | – | < 50 nM |
| O=C(N[C@H](CN1CCCC1)[C@H](O)c1ccc(OC2CC2)c(F)c1)C(=O)c1ccc(-c2ccc(F)cc2)cc1 [Compound 208, N-((1R,2R)-1-(4-cyclopropoxy-3-fluorophenyl)-1-hydroxy-3-(pyrrolidin-1-yl)propan-2-yl)-2-(4′-fluoro-[1,1′-biphenyl]-4-yl)-2-oxoacetamide] | – | < 50 nM |
| O=C(N[C@H](CN1CCCC1)[C@H](O)c1ccc(OC2CC2)c(Cl)c1)C(=O)c1ccc2ccccc2c1 [Compound 209, N-((1R,2R)-1-(3-chloro-4-cyclopropoxyphenyl)-1-hydroxy-3-(pyrrolidin-1-yl)propan-2-yl)-2-(naphthalen-2-yl)-2-oxoacetamide] | – | < 50 nM |
| O=C(N[C@H](CN1CCCC1)[C@H](O)c1cc(F)c2c(c1)OCCO2)C(F)(F)c1cccc(Oc2ccc(F)cc2)c1 [Compound 210, 2,2-difluoro-N-((1R,2R)-1-(8-fluoro-2,3-dihydrobenzo[b][1,4]dioxin-6-yl)-1-hydroxy-3-(pyrrolidin-1-yl)propan-2-yl)-2-(3-(4-fluorophenoxy)phenyl)acetamide] | – | < 50 nM |
| O=C(N[C@H](CN1CCCC1)[C@H](O)c1ccc2c(c1)OCCO2)C(F)(F)c1csc(-c2ccc(F)cc2)n1 [Compound 211, N-((1R,2R)-1-(2,3-dihydrobenzo[b][1,4]dioxin-6-yl)-1-hydroxy-3-(pyrrolidin-1-yl)propan-2-yl)-2,2-difluoro-2-(2-(4-fluorophenyl)thiazol-4-yl)acetamide] | B* (the compound had a % inhibition of greater than or equal to about 3% but less than about 50%) | – |
| Cn1ncc2cc(-c3ccc(C(F)(F)C(=O)N[C@H](CN4CCCC4)[C@H](O)c4ccc5c(c4)OCCO5)cc3)ccc21 [Compound 212, N-((1R,2R)-1-(2,3-dihydrobenzo[b][1,4]dioxin-6-yl)-1-hydroxy-3-(pyrrolidin-1-yl)propan-2-yl)-2,2-difluoro-2-(4-(1-methyl-1H-indazol-5-yl)phenyl)acetamide] | – | < 50 nM |
| O=C(N[C@H](CN1CCCC1)[C@H](O)c1ccc(OC2CC2)c(Cl)c1)C(F)(F)c1csc(-c2ccc(F)cc2)n1 [Compound 213, N-((1R,2R)-1-(3-chloro-4-cyclopropoxyphenyl)-1-hydroxy-3-(pyrrolidin-1-yl)propan-2-yl)-2,2-difluoro-2-(2-(4-fluorophenyl)thiazol-4-yl)acetamide] | B* (the compound had a % inhibition of greater than or equal to about 3% but less than about 50%) | – |
| O=C(N[C@H](CN1CCCC1)[C@H](O)c1ccc(OC2CC2)c(Cl)c1)C(=O)c1ccc(-c2ccccn2)cc1 [Compound 214, N-((1R,2R)-1-(3-chloro-4-cyclopropoxyphenyl)-1-hydroxy-3-(pyrrolidin-1-yl)propan-2-yl)-2-oxo-2-(4-(pyridin-2-yl)phenyl)acetamide] | – | < 50 nM |
| O=C(N[C@H](CN1CCCC1)[C@H](O)c1ccc(OC2CC2)c(Cl)c1)C(=O)c1cnc(-c2ccc(F)cc2)s1 [Compound 215, N-((1R,2R)-1-(3-chloro-4-cyclopropoxyphenyl)-1-hydroxy-3-(pyrrolidin-1-yl)propan-2-yl)-2-(2-(4-fluorophenyl)thiazol-5-yl)-2-oxoacetamide] | B* (the compound had a % inhibition of greater than or equal to about 3% but less than about 50%) | – |
| Cn1ncc2cc(C(=O)C(=O)N[C@H](CN3CCCC3)[C@H](O)c3ccc4c(c3)OCCO4)ccc21 [Compound 216, N-((1R,2R)-1-(2,3-dihydrobenzo[b][1,4]dioxin-6-yl)-1-hydroxy-3-(pyrrolidin-1-yl)propan-2-yl)-2-(1-methyl-1H-indazol-5-yl)-2-oxoacetamide] | – | < 50 nM |
| Cn1ncc2cc(C(=O)C(=O)N[C@H](CN3CCCC3)[C@H](O)c3cc(F)c4c(c3)OCCO4)ccc21 [Compound 217, N-((1R,2R)-1-(8-fluoro-2,3-dihydrobenzo[b][1,4]dioxin-6-yl)-1-hydroxy-3-(pyrrolidin-1-yl)propan-2-yl)-2-(1-methyl-1H-indazol-5-yl)-2-oxoacetamide] | – | < 50 nM |
| O=C(N[C@H](CN1CCCC1)[C@H](O)c1ccc(OC2CC2)c(Cl)c1)C(F)(F)c1ccc(-c2ccc(F)cc2)s1 [Compound 218, N-((1R,2R)-1-(3-chloro-4-cyclopropoxyphenyl)-1-hydroxy-3-(pyrrolidin-1-yl)propan-2-yl)-2,2-difluoro-2-(5-(4-fluorophenyl)thiophen-2-yl)acetamide] | B* (the compound had a % inhibition of greater than or equal to about 3% but less than about 50%) | – |
| O=C(N[C@H](CN1CCCC1)[C@H](O)c1ccc(OC2CC2)c(Cl)c1)C(=O)c1ccc(-c2ccc(F)cc2)s1 [Compound 219, N-((1R,2R)-1-(3-chloro-4-cyclopropoxyphenyl)-1-hydroxy-3-(pyrrolidin-1-yl)propan-2-yl)-2-(5-(4-fluorophenyl)thiophen-2-yl)-2-oxoacetamide] | A* (the compound had a % inhibition of a percent inhibition of greater than or equal to about 50%) | – |
| Cn1ncc2cc(-c3ccc(C(=O)C(=O)N[C@H](CN4CCCC4)[C@H](O)c4cc(F)c5c(c4)OCCO5)cc3)ccc21 [Compound 220, N-((1R,2R)-1-(8-fluoro-2,3-dihydrobenzo[b][1,4]dioxin-6-yl)-1-hydroxy-3-(pyrrolidin-1-yl)propan-2-yl)-2-(4-(1-methyl-1H-indazol-5-yl)phenyl)-2-oxoacetamide] | – | < 50 nM |
| O=C(N[C@H](CN1CCCC1)[C@H](O)c1cc(F)c2c(c1)OCCO2)C(F)(F)c1csc(-c2ccc(F)cc2)n1 [Compound 221, 2,2-difluoro-N-((1R,2R)-1-(8-fluoro-2,3-dihydrobenzo[b][1,4]dioxin-6-yl)-1-hydroxy-3-(pyrrolidin-1-yl)propan-2-yl)-2-(2-(4-fluorophenyl)thiazol-4-yl)acetamide] | A* (the compound had a % inhibition of a percent inhibition of greater than or equal to about 50%) | – |
| O=C(N[C@H](CN1CCCC1)[C@H](O)c1ccc(OC2CC2)c(Cl)c1)C(F)(F)c1cnc(-c2ccc(F)cc2)s1 [Compound 222, N-((1R,2R)-1-(3-chloro-4-cyclopropoxyphenyl)-1-hydroxy-3-(pyrrolidin-1-yl)propan-2-yl)-2,2-difluoro-2-(2-(4-fluorophenyl)thiazol-5-yl)acetamide] | B* (the compound had a % inhibition of greater than or equal to about 3% but less than about 50%) | – |
| Cn1ncc2cc(-c3ccc(C(=O)C(=O)N[C@H](CN4CCC4)[C@H](O)c4cc(F)c5c(c4)OCCO5)cc3)ccc21 [Compound 223, N-((1R,2R)-3-(azetidin-1-yl)-1-(8-fluoro-2,3-dihydrobenzo[b][1,4]dioxin-6-yl)-1-hydroxypropan-2-yl)-2-(4-(1-methyl-1H-indazol-5-yl)phenyl)-2-oxoacetamide] | – | < 50 nM |
| Cn1ncc2cc(C(=O)C(=O)N[C@H](CN3CCCC3)[C@H](O)c3ccc(OC4CC4)c(Cl)c3)ccc21 [Compound 224, N-((1R,2R)-1-(3-chloro-4-cyclopropoxyphenyl)-1-hydroxy-3-(pyrrolidin-1-yl)propan-2-yl)-2-(1-methyl-1H-indazol-5-yl)-2-oxoacetamide] | A* (the compound had a % inhibition of a percent inhibition of greater than or equal to about 50%) | – |
| O=C(N[C@H](CN1CCCC1)[C@H](O)c1ccc(OC2CC2)c(Cl)c1)C(=O)c1ccc2sc(Cl)cc2c1 [Compound 225, N-((1R,2R)-1-(3-chloro-4-cyclopropoxyphenyl)-1-hydroxy-3-(pyrrolidin-1-yl)propan-2-yl)-2-(2-chlorobenzo[b]thiophen-5-yl)-2-oxoacetamide] | B* (the compound had a % inhibition of greater than or equal to about 3% but less than about 50%) | – |
| O=C(N[C@H](CN1CCCC1)[C@H](O)c1cc(F)c2c(c1)OCCO2)C(=O)c1csc(-c2ccc(F)cc2)n1 [Compound 226, N-((1R,2R)-1-(8-fluoro-2,3-dihydrobenzo[b][1,4]dioxin-6-yl)-1-hydroxy-3-(pyrrolidin-1-yl)propan-2-yl)-2-(2-(4-fluorophenyl)thiazol-4-yl)-2-oxoacetamide] | B* (the compound had a % inhibition of greater than or equal to about 3% but less than about 50%) | – |
